Test results reported in US5101072A, “Sulfonylhydrazines and their use as antineoplastic agents and as antitrypanosomal agents” (Yale University, priority 1989, dated 1992).

How the values were obtained:
L1210 leukemia = assay: Survival time of mice bearing the L1210 leukemia; assay type: in vivo
Description: The tumor-inhibitory properties of several compounds, e.g., 1,2-bis(methylsulfonyl)-1-methylhydrazine, 1-methyl-1,2,2-tris(methylsulfonyl)hydrazine, 1,2-bis(methylsulfonyl)-1,2-dimethylhydrazine and 1-(2-chloroethyl)-1,2,2-tris(methylsulfonyl)hydrazine were determined by measuring the effects of these agents on the survival time of mice bearing the L1210 leukemia as described by K. Shyam, L. A. Cosby, and A. C. Sartorelli, J. Med. Chem., 28, 525-527 (1985).
^a Administered once daily for 6 consecutive days, beginning 24 hours
after tumor transplantation with 5-10 animals being used per group.
^b Average change in body weight from onset to termination of therapy
^c % T/C = average survival time of treated/control animals ×

[1] = system: T. rhodesiense (Y Tat 1.1); assay: Survival time of CD-1 mice infected with T. rhodesiense (trypanocidal activity); assay type: in vivo, T. rhodesiense (Y Tat 1.1); CD-1 mice; conditions: single ip dose 0.2 mmol/kg in 0.05 ml of DMSO
Description: The trypanocidal properties of several methylating agents including MeSO2 N(Me)N(SO2 Me)2 and MeSO2 N(Me)N(Me)SO2 Me were determined by measuring their effects on the survival time of CD-1 mice infected with T. rhodesiense (Y Tat 1.1), a pleimorphic strain that produces a non-relapsing disease in mice. The level of parasites in the bloodstream and body fluids increases by approximately 10-fold per day and the animals die when the parasite burden exceeds 1 to 2×10^9 cells/ml. Infection with a single viable parasite will kill a mouse in approximately 9 to 10 days.
Mice were infected ip with approximately 10^6 trypanosomes/mouse in phosphate buffered saline containing glucose. This level of parasites produces death in 4 days post-infection. These mice were treated (ip) with a single dose of drug dissolved in the appropriate vehicle 3 days after infection, when the parasitemia was 1 to 3×10^8 cells/ml of blood and the mice, if untreated, would survive for only 24 additional hours. The number of days the mice survived beyond that of the untreated controls was used as a measure of trypanocidal activity. The level of parasitemia in treated mice was measured at regular intervals to distinguish between parasite-related and drug toxicity-related deaths. No toxic deaths were observed. Mice that survived for 30 days without detectable parasitemias were considered cured. The effects of a single dose of various methylating agents on the survival time of trypanosome-bearing mice are summarized in Table II.
^a Drug that was administered was dissolved in 0.5 ml of phosphate
buffered saline containing glucose.
^b Drug that was administered was dissolved in 0.05 ml of DMSO.

[2] = Methanol generation in vitro (spontaneous breakdown to generate reactive methyl groups); assay type: physicochemical; conditions: aqueous buffered (pH 7.6) solution
Description: (§1) The reaction of 1,2-bis(sulfonyl)-1-methylhydrazine with water at pH 7.4-7.6 at 37° C. can be followed by proton release and/or methanol generation. Methanol generation can be assayed using alcohol oxidase and measuring the resultant O2 consumption using a Gilson oxygraph. This assay can be calibrated using methanol standards. The reaction of 1,2-bis(sulfonyl)-1-methylhydrazine with water is relatively fast [a 50 μM solution of 1,2-bis(methylsulfonyl)-1-methylhydrazine decomposes at an initial rate of 12-15% per minute in phosphate buffered saline (pH 7.6) at 37° C.] compared to the hydroylsis of 1,2,2-tris(methylsulfonyl)-1-methylhydrazine. RSO2 N=NMe may also decompose by a free radical mechanism to a smaller extent and methylate by the generation of methyl radicals.
Methanol was produced by these agents in aqueous solutions free from strong competing nucleophiles. Formation of this alcohol was used as a measure of the rate of spontaneous breakdown of these compounds to generate reactive methyl groups. […] These findings provide strong evidence that methylation is essential for the observed biological activity of these compounds.

[3] = Hydrolysis / decomposition in aqueous solution; assay type: physicochemical
Description: In the case of 1,2,2-tris(methylsulfonyl)-1-methylhydrazine, this reaction occurs slowly. A 50 μM solution of this compound hydrolyzes at an initial rate of 1% per minute in phosphate buffered saline (pH 7.6) at 37° C.
Hydrolysis is expected to occur preferentially at N-2 to generate the 1,2-bis(sulfonyl)-1-methylhydrazine. The sulfonic acid and 1,2-bis(sulfonyl)-1-methylhydrazine that are generated are both ionized under these conditions. The release of protons can be used to follow the decomposition of these and related compounds. The release of protons can be assayed by following the decrease in absorbance at 560 nm of a weakly buffered (1 mM potassium phosphate) phenol red (21 mg/l) solution; initial pH 7.6 at 37° C. The assay can be calibrated using HCl standards.
as §1

trypanosomes = assay: Loss of antitrypanosomal activity upon aging of aqueous buffered solutions; assay type: in vivo; conditions: aqueous buffered (pH 7.6)
T. gambiense = assay: Activity against T. gambiense
Description: (§2) A representative agent, 1,2-bis(methylsulfonyl)-1-methylhydrazine, was also tested against several other trypanosoma species.

I. brucei brucei = assay: Activity against brucei brucei
Description: as §2

T. evansi = assay: Activity against T. evansi
Description: as §2

T. equiperdum = assay: Activity against T. equiperdum
Description: as §2

T. rhodesiense = assay: Oral trypanocidal activity (preliminary); assay type: in vivo, T. rhodesiense; mice; conditions: aqueous solutions, preliminary results
Text: Orally active trypanocidal agents are desirable since, in areas where trypanosomiasis is endemic, other routes of drug administration frequently present problems.

[4] = late-stage sleeping sickness; cited from earlier work
[5] = system: early-stage sleeping sickness; conditions: man and animals; cited from earlier work
T. brucei = conditions: cited from earlier work
[6] = system: decarboxylated S-adenosylmethionine (DSAM) and S-adenosylmethionine (SAM); conditions: cited from earlier work
[7] = L1210, at optimum effective daily dose, once daily × 6 days

## CN(NS(C)(=O)=O)S(C)(=O)=O [MeSO2 N(Me)NHSO2 Me, 1,2-bis(methylsulfonyl)-1-methylhydrazine]
L1210 leukemia; [7]
  60-day cures, %: 0%
  % T/C (average survival time of treated/control animals × 100): 180%
L1210 leukemia; mouse, in vivo
  AvΔ Wt, % (average change in body weight from onset to termination of therapy): -10.7%
[1]
  Mean Extension of Life: 11.8 days
[2]
  Time within which decomposition was complete (no further methanol generated): ≤ 15 min
[3]; 50 μM solution, phosphate buffered saline (pH 7.6), 37° C.
  Initial rate of hydrolysis / decomposition: 12-15 % per minute
[3]; acidified solutions
  Decomposition in aqueous solutions: can be inhibited by dosing in acidified solutions
trypanosomes; after 0 minutes of aging
  antitrypanosomal activity lost on aging: 0%
trypanosomes; after 1 minute of aging
  antitrypanosomal activity lost on aging: 21%
trypanosomes; after 5 minutes of aging
  antitrypanosomal activity lost on aging: 73%
trypanosomes; after 15 minutes of aging
  antitrypanosomal activity lost on aging: 97%
T. gambiense
  Activity against T. gambiense: Activity has been demonstrated
I. brucei brucei
  Activity against I. brucei brucei: Activity has been demonstrated
T. evansi
  Activity against T. evansi: Activity has been demonstrated
T. equiperdum
  Activity against T. equiperdum: Activity has been demonstrated
T. rhodesiense
  Trypanocidal activity on oral administration compared with Table II: comparable activity to that reported in Table II

## Nc1nc(N)nc(Nc2ccc([As]3SCC(CO)S3)cc2)n1 (centres unmarked) [melarsoprol]
[4]
  patients die due to drug toxicity: up to 5%

## NCCC[C@](N)(C(=O)O)C(F)F [DFMO, alpha-difluoromethylornithine]
[5]
  Efficacy against early-stage sleeping sickness: effective against early-stage sleeping sickness
T. brucei
  Induction of differentiation in T. brucei: induce differentiation in T. brucei
[6]
  increase in decarboxylated S-adenosylmethionine (DSAM) and S-adenosylmethionine (SAM): 1000 fold
